Each structure is given as a SMILES string. pIC50: −log10 of the molar value.

This note sets out measurements from patent US7368467B2, “Ion channel modulators” (Wyeth, priority 2004, dated 2008).

One experiment concerns calcium channels (e.g., Cav2.2 subfamily). Put plainly: Oocyte assay, calcium channel modulation in Xenopus oocyte heterologous expression system. The class given is cell-based. The settings on record: calcium channel (e.g., Cav2.2 subfamily). The procedure:
Representative compounds of the formulae herein are screened for activity against calcium channel targets in an assay essentially as described in Neuron January 1997, 18(11): 153-166, Lin et. al.; J. Neurosci. Jul. 1, 2000, 20(13):4768-75, J. Pan and D. Lipsombe; and J. Neurosci., Aug. 15, 2001, 21(16):5944-5951, W. Xu and D. Lipscombe, using Xenopus oocyte heterologeous expression system. The assay is performed on various calcium channels (e.g., Cav2.2subfamily) whereby the modulation of the calcium channel is measured for each compound. Table 2 contains IC50's for representative compounds disclosed in the invention.
Usually pIC50 stands for −log10 of the IC50, conventionally taken in molar units. Turning to `Cc1ccc(-n2c(-c3ccccc3)cnc2SCc2nc3ccccc3[nH]2)cc1` [Compound 2], the pIC50 is 5.18. On the same count and under the same terms, in the case of `Cc1ccc(-n2c(-c3ccc(F)cc3)cnc2SCc2nc3ccccc3[nH]2)cc1` [Compound 4] it was 5.24; in that of `COc1ccc(-n2c(-c3ccc(F)cc3)cnc2SCC(=O)NCc2ccco2)cc1` [Compound 234], 5.27.

Another experiment concerns calcium channel (e.g., L-type, N-type, etc.). Description: HEK assay, whole-cell voltage clamp of calcium channel currents in transiently transfected HEK-293T/17 cells. It counts as cell-based. As to conditions: whole-cell patch clamp, holding potential −100 mV, steps to about +10 mV. The protocol:
HEK-293T/17 cells are transiently transfected in a similar manner as described in FuGENE 6 Package Insert Version 7, April 2002, Roche Applied Science, Indianapolis, Ind. The cells are plated at 2.5×10^5 cells in 2 mL in a 6-well plate in incubator for one night and achieve a 30˜40% confluence. In a small sterile tube, add sufficient serum-free medium as diluent for FuGENE Transfection Reagent (Roche Applied Science, Indianapolis, Ind.), to a total volume of 100 μL. Add 3 μL of FuGENE 6 Reagent directly into this medium. The mixture is tapped gently to mix. 2 μg of DNA solution (0.8-2.0 μg/μL) is added to the prediluted FuGENE 6 Reagent from above. The DNA/Fugene 6 mixture is gently pipeted to mix the contents and incubated for about 15 minutes at room temperature. The complex mixture is then added to the HEK-293T/17 cells, distributing it around the well, and swirled to ensure even dispersal. The cells are returned to the incubator for 24 hrs. The transfected cells are then replated at density 2.5×10^5 in a 35 mm dish with 5 glass coverslips and grow in low serum(1%) media for 24 hrs. Coverslips with isolated cells are then transferred into chamber and calcium channel (e.g., L-type, N-type, etc.) current or other currents for counter screening are recorded from the transiently transfected HEK-293T/1 7 cells.
The whole-cell voltage clamp configuration of the patch clamp technique is employed to evaluate voltage-dependent calcium currents essentially as described by Thompson and Wong (1991) J. Physiol., 439: 671-689. To record calcium channel (e.g., L-type, N-type, etc.) currents for evaluation of inhibitory potency of compounds (steady-state concentration-response analysis), five pulses of 20-30 ms voltage steps to about +10 mV (the peak of the current voltage relationship) are delivered at five Hz every 30 second from a holding potential at −100 mV. Compound evaluations were carried out essentially as described by Sah D W and Bean B P (1994) Mol Pharmacol. 45(1):84-92. Table 3 contains IC50's for representative compounds.
`COc1ccc(OC)c(-c2cnc(SCc3nc4ccccc4[nH]3)n2-c2ccc(Cl)cc2)c1` [Compound 7]: the pIC50 was 6.10. The same measure, in the same setting: with `COc1ccccc1-c1cnc(SCc2cnc(C)s2)n1-c1ccc(Cl)cc1` [Compound 8] the figure was 6.73; with `Cc1ccc(F)cc1-c1cnc(SCc2nc3ccccc3[nH]2)n1-c1ccc(Cl)cc1` [Compound 13], 6.48.
